For series [1] the following is noted: cited from earlier work.
Series [2] can be described thus: Phase 2 trial, serious adverse events. Format: in vivo, human. To be noted: grade >/= 2 clinical toxicity, NCI Common Toxicity Criteria v 2.0; 12 subjects.
The subject of series [3] is MEK4. Description: Phosphorylation of MEK4 in vivo (TGFβ stimulated). Format: cell-based. The method, then: Phosphorylation by MEK4 (FIG. 4A) and phosphorylation of MEK4 (FIG. 7) was assayed. The Upstate Biotechnology MEK4 assay system was used to measure inhibition of MEK4 activity. Phosphorylation of MEK4 in vivo was assayed using standard techniques.
Series [4] deals with PCa cell lines (PC3, PC3-M, 1532CPTX, 1542CPTX, 1532NPTX, 1542NPTX). In words: Cell invasion assay of PCa cell lines (Examples 2 and 3). Format: cell-based, human. The text has this:
MEK expression was examined in six human prostate cancer (PCa) cell lines: PC3 and PC3-M metastatic PCa cells, 1532CPTX and 1542 CPTX immortalized localized PCa cells, and 1532 NPTX and 1542 NPTX immortalized normal epithelial cells. The last four cell lines are primary cells, are HPV transformed, and thus represent early stages of prostate carcinogenesis. They provide representative members of the metastatic phenotype, as well as members of early state phenotypes. […] All six cell lines also secrete as well as respond to TGFβ, a regulator of cell motility that plays a role in PCa cell invasiveness.
Assays were conducted using methods as described in Craft et al. (2008, Mol. Pharmocol., 73(1):235-242; herein incorporated by reference in its entirety).

The next series deals with MMP-2. Description: Phase 2 trial, MMP-2 transcript by qRT/PCR in LCM normal prostate epithelial cells. The series is classed as in vivo, human. Particulars: 2 mg genistein/kg/day. As to the method: Of 38 subjects completing the study, MMP-2 expression was analyzed in tissue from 12 genistein-treated subjects and 12 controls. […] MMP-2 expression was measured by removing normal prostate epithelial cells from intact fresh frozen prostate tissue by laser capture microdissection (LCM), isolating RNA, treating with DNase, assessing RNA quality by capillary electrophoresis, and measuring MMP-2 transcript levels by qRT/PCR (normalizing to GAPDH), using exon spanning primers.

Series [5] concerns ER promoter-luciferase reporter vector construct. In words: ER promoter-luciferase reporter assay in MCF-7 cells. The series is classed as cell-based, human. Particulars: 10 μM. The method, then:
The genes were: TFF1 (trefoil factor 1; also known as pS2), PGR (progesterone receptor), and CPSD (cathepsin D). Gene expression was measured by isolating RNA, and performing real time quantitative reverse transcription/polymerase chain reaction (qRT/PCR), using exon spanning primers (purchased from Applied Biosystems). The expression of GAPDH was also measured, and used to normalize the expression of ER responsive genes. Data below are the mean±SD of a single experiment, performed in duplicate. […] Additionally, the ability of compound 46 to activate an ER promoter-luciferase reporter vector construct after transient transfection of the human ER positive breast cancer cell line, MCF-7, was evaluated (FIG. 31). […] “No associated control cells” were transfected with an identical vector construct that lacked the estrogen response element, i.e., noERE.
Background: In a reporter assay the amount or activity of a reporter protein is the signal.

The test system of another series is human PC3-M PCa cells. Description: Orthotopic PC3-M implantation metastasis model in athymic mice.
In series [6] the target is T1, MEK4 (Homo sapiens, UniProt P45985).
T1 construct: purchased Upstate Biotechnology
T1 sequence (P45985 1-399): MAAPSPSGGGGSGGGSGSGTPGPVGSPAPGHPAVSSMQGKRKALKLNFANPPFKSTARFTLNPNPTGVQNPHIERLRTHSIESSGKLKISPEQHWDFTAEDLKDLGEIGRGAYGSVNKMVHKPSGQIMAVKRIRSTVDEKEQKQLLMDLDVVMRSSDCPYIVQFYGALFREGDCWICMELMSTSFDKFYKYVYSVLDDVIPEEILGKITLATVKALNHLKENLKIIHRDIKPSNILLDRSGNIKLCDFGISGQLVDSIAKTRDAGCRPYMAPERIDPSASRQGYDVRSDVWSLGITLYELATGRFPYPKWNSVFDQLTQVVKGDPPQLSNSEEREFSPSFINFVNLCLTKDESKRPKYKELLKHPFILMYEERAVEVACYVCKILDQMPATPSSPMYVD
Description: Upstate Biotechnology MEK4 assay system, inhibition of MEK4 kinase activity. The series is classed as biochemical. Particulars: in vitro.

The subject of series [7] is prostate epithelial cells. Description: Phase 2 trial, nuclear morphology of prostate epithelial cells. The series is classed as in vivo, human. To be noted: genistein treated men vs controls. The source says:
Though morphologically “normal,” these cells are present within organs with PCa, have pre-cancer molecular changes, and represent an appropriate target cell type for therapy that inhibits a process associated with PCa progression, in this case, development of the metastatic phenotype. […] These findings are consistent with its effects in vitro and in mice.

Where [8] appears, read: 0, 100, 250 mg genistein/kg chow.
Setting [9] is: Western blot, primary tumor tissue.

Read-outs that look alike come from different tables or passages of the source. Bounds are passed on as bounds.

Take `O=c1c(-c2ccc(O)cc2)coc2cc(O)cc(O)c12` [genistein]: the tolerability entry in [1] (2 to 8 mg genistein/kg, men with prostate cancer) was “well tolerated”. Besides, in series [1] (2 to 8 mg genistein/kg), the “peak concentration of free genistein” value was 66 to 170 nM and the peak concentration of total genistein was 4.3 to 16.3 µM. In [1] (dependence on body mass), the clearance entry is recorded as “not altered by body mass”. Besides, in [1] (in vivo), the blood genistein conjugated is listed as above 90% and the halflife was 15 to 22 h. In addition, in series [2], the “serious adverse events, number” value was found to be 0. In the series with MEK4 [3], the “TGFβ increased MEK4 phosphorylation” value is given as “does not block such phosphorylation”. In series [4] (early and late stage PCa cells), the cell invasion result was “inhibits invasion of both early and late stage PCa cells”. Besides, the “effect of genistein on invasiveness when MEK4 expression suppressed” value in series [4] (in the presence of siMEK4) is “abrogated”. For the same compound, the “MMP-2 transcript level, % of controls (mean±SEM)” value with MMP-2 is given as 24±4.1%. Besides, the luciferase activity result in [5] was “induced luciferase activity”. In the series on human PC3-M PCa cells (setting [8]), the metastasis entry was “decreased metastasis” and the tumor volume entry is “not tumor volume”. Moreover, in the series on human PC3-M PCa cells (setting [9]), the “level of total p38 MAP kinase protein” value is reported as “increased the level of total p38 MAP kinase protein” and the “p38 MAP kinase phosphorylation” value is “decreased its phosphorylation”. In addition, the weight of mice entry in the series with human PC3-M PCa cells (between cohorts) is “no difference”. In addition, where the note is “100 mg genistein/kg chow cohort”, the “blood concentration of total genistein” value was 290 ± 72 nM. Moreover, the “blood concentration of total genistein” value (250 mg genistein/kg chow cohort) worked out at 1307 ± 507 nM. Further, at MEK4 [6], the “phosphorylation of JNK3 by MEK4” value is “inhibits phosphorylation of JNK3 by MEK4”. In series [7], the “increase in nuclear length” value is 1.5±0.7% and the “increase in nuclear width” value was determined as 2.7±0.7%. Besides, the “increase in nuclear area” value in [7] (only a trend) is listed as 2.0±1.0%.

The values are drawn from patent publication US8742141B2, “Inhibition and treatment of prostate cancer metastasis” (Northwestern University, priority 2008, dated 2014).
